Measured values: patent US5556864A, “α-ω-diarylalkane compounds serotonin-2 receptor agonists” (Sankyo Company, Limited, priority 1992, dated 1996)
Where a name gives a salt, the structure may show the parent alone.

Experiments:
adrenaline-α1 receptors = assay: Vasoconstriction experiment: relaxation of rat caudal artery strips precontracted with phenylephrine; format: cell-based, rat (male Sprague-Dawley); details: precontracted with phenylephrine 10^-6 M; concentration causing one half of maximum relaxation (papaverine 10^-4 M = maximum); 37 °C; read-out: IC50 adrenalin-α1
Description: (§1) Vasoconstriction Experiment
(§2) Contractions of the rat caudal ateries were investigated by the method of Van Neuten et al. (J. Pharmacol. Exp. Ther., 218, 217-230, 1981).
(§3) Male Sprague-Dawley rats, each weighing approximately 500 g, were sacrificed by rapid exsanguination. The caudal arteries were dissected free from connective tissue and cut into spiral strips (2×20 mm). The resulting preparations were mounted in organ baths, each containing 10 ml of Tyrode solution maintained at 37° C., and then gassed with a mixture of 95% by volume O2 and 5% CO2. The preparations were allowed to equilibrate for 1 hour before being used in the experiment.
(§4) An initial optimum resting tension of 0.5 g was applied to the preparations, and isometric contractions were recorded with force-displacement transducers. The relaxant effects of the test compounds were determined on preparations which had been precontracted with 5-HT (5-hydroxytryptamine) (3×10^-6 M), which is an agonist of the 5-HT2 receptors, or phenylephrine (10^-6 M), which is an agonist of the adrenaline-α1 receptors. After the constractile response to the 5-HT or the phenylephrine had reached a steady state, the test compound was added cumulatively to the bathing medium. At the end of the experiments, papaverine (10^-4 M) was added to produce the maximum relaxation.
(§5) The relaxation induced by each test compound was calculated as a percentage of the maximum relaxation induced by 10^-4 M of papaverine. The concentrations causing one half of the maximum relaxation (IC50) were calculated by the method of least squares.

5-HT2 receptors = biological target: T1, 5-HT2 receptors (Rattus norvegicus, UniProt P14842); assay: Vasoconstriction experiment: relaxation of rat caudal artery strips precontracted with 5-HT; format: cell-based, rat (male Sprague-Dawley); details: precontracted with 5-HT 3×10^-6 M; concentration causing one half of maximum relaxation (papaverine 10^-4 M = maximum); 37 °C
T1 construct: The caudal arteries were dissected free from connective tissue and cut into spiral strips; from tissue; host or cells: rat caudal artery, spiral strips
Description: as §1, §2, §3, §4, §5

T1 sequence (P14842 whole entry): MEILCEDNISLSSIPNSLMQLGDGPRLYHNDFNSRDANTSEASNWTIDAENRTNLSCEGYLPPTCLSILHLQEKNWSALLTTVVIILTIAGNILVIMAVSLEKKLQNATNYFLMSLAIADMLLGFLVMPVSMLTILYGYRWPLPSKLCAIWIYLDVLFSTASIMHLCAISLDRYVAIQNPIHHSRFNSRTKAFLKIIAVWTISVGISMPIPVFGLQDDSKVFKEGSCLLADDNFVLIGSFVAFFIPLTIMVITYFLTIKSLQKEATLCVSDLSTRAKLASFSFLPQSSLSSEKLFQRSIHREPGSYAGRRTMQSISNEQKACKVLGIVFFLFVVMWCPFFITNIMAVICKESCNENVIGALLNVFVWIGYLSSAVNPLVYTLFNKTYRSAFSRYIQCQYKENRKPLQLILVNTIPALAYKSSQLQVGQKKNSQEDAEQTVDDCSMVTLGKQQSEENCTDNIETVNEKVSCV

## COc1cccc(CCc2ccccc2OCCC2CCCCN2C)c1 (stereo not shown) [Example 48, 2-(2-{2-[2-(3-Methoxyphenyl)ethyl]phenoxy}ethyl)-1-methylpiperidine hydrochloride]
adrenaline-α1 receptors
  IC50: 2500 nM
5-HT2 receptors
  IC50: 3.7 nM

## COc1cccc(CCc2ccccc2OCC2CCCN(C)C2)c1 (stereo not shown) [Example 50, 3-{2-[2-(3-Methoxyphenyl)ethyl]phenoxymethyl}-1-methylpiperidine hydrochloride]
adrenaline-α1 receptors
  IC50: 3700 nM
5-HT2 receptors
  IC50: 4.3 nM

## COc1cccc(CCc2ccccc2OC[C@@H]2CCCN2C)c1 [Example 58, (S)-2-{2-[2-(3-Methoxyphenyl)ethyl]phenoxymethyl}-1-methylpyrrolidine hydrochloride]
adrenaline-α1 receptors
  IC50: 4900 nM
5-HT2 receptors
  IC50: 5 nM

## CN1CCCC1CCOc1ccccc1CCc1ccccc1F (stereo not shown) [Example 97, 2-(2-{2-[2-(2-Fluorophenyl)ethyl]phenoxy}ethyl)-1-methylpyrrolidine hydrochloride]
adrenaline-α1 receptors
  IC50: 860 nM
5-HT2 receptors
  IC50: 6.5 nM

## CN1CCCC1CCOc1ccccc1CCc1cccc(Br)c1 (stereo not shown) [Example 98, 2-(2-{2-[2-(3-Bromophenyl)ethyl]phenoxy}ethyl)-1-methylpyrrolidine hydrochloride]
adrenaline-α1 receptors
  IC50: 2200 nM
5-HT2 receptors
  IC50: 5.4 nM

## CCOc1cccc(CCc2ccccc2OCCC2CCCN2C)c1 (stereo not shown) [Example 99, 2-(2-{2-[2-(3-Ethoxyphenyl)ethyl]phenoxy}ethyl)-1-methylpyrrolidine hydrochloride]
adrenaline-α1 receptors
  IC50: 1300 nM
5-HT2 receptors
  IC50: 6.1 nM

## CCOc1ccc(CCc2ccccc2OCCC2CCCN2C)cc1 (stereo not shown) [Example 101, 2-(2-{2-[2-(4-Ethoxyphenyl)ethyl]phenoxy}ethyl)-1-methylpyrrolidine hydrochloride]
adrenaline-α1 receptors
  IC50: 3700 nM
5-HT2 receptors
  IC50: 3.7 nM

## CN1CCCC1CCOc1ccccc1CCc1ccccc1C#N (stereo not shown) [Example 108, 2-(2-{2-[2-(2-Cyanophenyl)ethyl]phenoxy}ethyl)-1-methylpyrrolidine hydrochloride]
adrenaline-α1 receptors
  IC50: 1700 nM
5-HT2 receptors
  IC50: 2.2 nM

## COc1cccc(CCc2ccccc2OCC[C@@H]2CCCN2C)c1 [Example 113, (S)-2-(2-{2-[2-(3-Methoxyphenyl)ethyl]phenoxy}ethyl)-1-methylpyrrolidine hydrochloride]
adrenaline-α1 receptors
  IC50: 1200 nM
5-HT2 receptors
  IC50: 2.2 nM

## CN1CCC[C@H]1CCOc1ccccc1CCc1cccc(OC(F)F)c1 [Example 116, (S)-2-(2-{2-[2-(3-Difluoromethoxyphenyl)ethyl]phenoxy}ethyl)-1-methylpyrrolidine hydrochloride]
5-HT2 receptors
  IC50: 2.2 nM

## COc1cc(CCc2ccccc2OCC[C@@H]2C[C@@H](O)CN2C)cc(OC)c1 [Example 118, (2R,4R)-4-hydroxy-2-(2-{2-[2-(3,5-dimethoxyphenyl)ethyl]phenoxy}ethyl)-1-methylpyrrolidine]
adrenaline-α1 receptors
  IC50: 5400 nM
5-HT2 receptors
  IC50: 2.6 nM

## COc1cccc(CCc2ccccc2OC[C@H]2CCCNC2)c1 [Example 120, (S)-3-{2-[2-(3-Methoxyphenyl)ethyl]phenoxymethyl}piperidine hydrochloride]
5-HT2 receptors
  IC50: 4.2 nM

## COc1cccc(CCc2ccccc2OC[C@H]2CCCN(C)C2)c1 [Example 121, (S)-3-{2-[2-(3-Methoxyphenyl)ethyl]phenoxymethyl}-1-methylpiperidine hydrochloride]
5-HT2 receptors
  IC50: 2.2 nM

## FC(F)Oc1cccc(CCc2ccccc2OCC2CCCNC2)c1 (stereo not shown) [Example 123, 3-{2-[2-(3-Difluoromethoxyphenyl)ethyl]phenoxymethyl}piperidine hydrochloride]
5-HT2 receptors
  IC50: 5.7 nM

## CN1CCCC(COc2ccccc2CCc2cccc(OC(F)F)c2)C1 (stereo not shown) [Example 124, 3-{2-[2-(3-Difluoromethoxyphenyl)ethyl]phenoxymethyl}-1-methylpiperidine hydrochloride]
5-HT2 receptors
  IC50: 4.6 nM
